In patent publication US8268990B2, “Compounds” (AstraZeneca AB, priority 2007, dated 2012):

Target: T1, Recombinant human TLR7 (Homo sapiens, UniProt Q9NYK1)
T1 construct: expressed in transfected cells; host or cells: HEK293 cell line stably expressing the pNiFty2-SEAP reporter plasmid; TLR7 in vector pUNO, blasticidin selection
T1 sequence (Q9NYK1 27-1049): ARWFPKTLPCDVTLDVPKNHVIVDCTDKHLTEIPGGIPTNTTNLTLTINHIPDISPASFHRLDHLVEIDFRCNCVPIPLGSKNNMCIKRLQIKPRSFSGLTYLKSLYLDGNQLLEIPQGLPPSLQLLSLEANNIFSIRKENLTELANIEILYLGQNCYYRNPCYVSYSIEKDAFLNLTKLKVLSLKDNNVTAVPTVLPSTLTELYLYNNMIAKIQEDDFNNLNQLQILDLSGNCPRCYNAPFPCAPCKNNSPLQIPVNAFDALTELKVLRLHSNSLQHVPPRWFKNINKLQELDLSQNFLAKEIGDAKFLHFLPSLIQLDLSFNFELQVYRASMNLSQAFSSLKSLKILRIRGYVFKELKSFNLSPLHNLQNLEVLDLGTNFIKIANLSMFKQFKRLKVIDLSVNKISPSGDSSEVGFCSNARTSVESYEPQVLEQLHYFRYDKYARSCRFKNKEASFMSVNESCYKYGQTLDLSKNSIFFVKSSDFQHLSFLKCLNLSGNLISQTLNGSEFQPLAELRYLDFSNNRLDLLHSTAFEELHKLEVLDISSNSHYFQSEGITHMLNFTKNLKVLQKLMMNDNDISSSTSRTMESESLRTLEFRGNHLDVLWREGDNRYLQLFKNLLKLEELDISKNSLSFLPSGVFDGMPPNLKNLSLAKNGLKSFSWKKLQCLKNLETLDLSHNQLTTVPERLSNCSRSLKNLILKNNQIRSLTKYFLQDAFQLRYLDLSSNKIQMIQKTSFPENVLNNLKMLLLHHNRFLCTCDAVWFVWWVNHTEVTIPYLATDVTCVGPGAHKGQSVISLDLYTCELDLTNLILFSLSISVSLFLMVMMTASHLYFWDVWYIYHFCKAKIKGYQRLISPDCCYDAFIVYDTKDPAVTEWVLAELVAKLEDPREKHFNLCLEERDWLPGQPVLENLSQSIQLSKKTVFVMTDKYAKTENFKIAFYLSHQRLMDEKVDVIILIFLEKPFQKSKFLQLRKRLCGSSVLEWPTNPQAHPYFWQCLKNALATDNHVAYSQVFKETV
Experiment: Human TLR7 Assay (SEAP reporter);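 also: SEAP driven by an NFkB-responsive composite promoter, pEC50 read at half of each compound's own maximal SEAP induction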
Assay type: cell-based
Settings: HEK293 cell line stably expressing human TLR7 and pNiFty2-SEAP reporter; SEAP induction after overnight incubation at 37° C., 0.1% (v/v) DMSO
Excerpt: Recombinant human TLR7 was stably expressed in a HEK293 cell line already stably expressing the pNiFty2-SEAP reporter plasmid; integration of the reporter gene was maintained by selection with the antibiotic zeocin. The most common variant sequence of human TLR7 (represented by the EMBL sequence AF240467) was cloned into the mammalian cell expression vector pUNO and transfected into this reporter cell-line. Transfectants with stable expression were selected using the antibiotic blasticidin. In this reporter cell-line, expression of secreted alkaline phosphatase (SEAP) is controlled by an NFkB/ELAM-1 composite promoter comprising five NFkB sites combined with the proximal ELAM-1 promoter. TLR signaling leads to the translocation of NFkB and activation of the promoter results in expression of the SEAP gene. TLR7-specific activation was assessed by determining the level of SEAP produced following overnight incubation of the cells at 37° C. with the standard compound in the presence of 0.1% (v/v) dimethylsulfoxide (DMSO). Concentration dependent induction of SEAP production by compounds was expressed as the concentration of compound which produced half of the maximal level of SEAP induction for that compound (pEC50).

Row | SMILES | EC50 [nM]
1 | CCCCCNc1nc(N)nc(C)c1Cc1ccc(CC(=O)OCCN(C)C)cc1 [Example 36, 2-(Dimethylamino)ethyl 2-(4-((2-amino-4-methyl-6-(pentylamino)pyrimidin-5-yl)methyl)phenyl)acetate] | 251
2 | CCCCCNc1nc(N)nc(C)c1CCCN(Cc1ccc(CC(=O)OC)cc1)C(=O)CN1CCCCC1 [Example 29, Methyl 2-(4-((N-(3-(2-amino-4-methyl-6-(pentylamino)pyrimidin-5-yl)propyl)-2-(piperidin-1-yl)acetamido)methyl)phenyl)acetate] | 794
3 | CCCCCNc1nc(N)nc(C)c1CCCN(Cc1ccc(CC(=O)OC)cc1)C(=O)CN(C)CCOC [Example 15, Methyl 2-(4-((N-(3-(2-amino-4-methyl-6-(pentylamino)pyrimidin-5-yl)propyl)-2-((2-methoxyethyl)(methyl)amino)acetamido)methyl)phenyl)acetate] | 398
4 | CCCC[C@@H](CO)Nc1nc(N)nc(C)c1Cc1ccc(CC(=O)OC)cc1 [Example 44, (S)-Methyl 2-(4-((2-amino-4-(1-hydroxyhexan-2-ylamino)-6-methylpyrimidin-5-yl)methyl)phenyl)acetate] | 631
5 | CCCCNc1nc(N)nc(C)c1Cc1ccc(CC(=O)OCCCO)cc1OC [Example 93, 3-Hydroxypropyl 2-(4-((2-amino-4-(butylamino)-6-methylpyrimidin-5-yl)methyl)-3-methoxyphenyl)acetate] | 20
6 | CCCCCNc1nc(N)nc(C)c1CCCN(Cc1cccc(CC(=O)OC)c1)C(=O)CN1CCC(O)CC1 [Example 7, Methyl 2-(3-((N-(3-(2-amino-4-methyl-6-(pentylamino)pyrimidin-5-yl)propyl)-2-(4-hydroxypiperidin-1-yl)acetamido)methyl)phenyl)acetate] | 2510
7 | CCCCCNc1nc(N)nc(C)c1CCCN(Cc1cccc(CC(=O)OC)c1)C(=O)CN1CCCN(C(C)=O)CC1 [Example 8, Methyl 2-(3-((2-(4-acetyl-1,4-diazepan-1-yl)-N-(3-(2-amino-4-methyl-6-(pentylamino)pyrimidin-5-yl)propyl)acetamido)methyl)phenyl)acetate] | 2510
8 | CCCCNc1nc(N)nc(C)c1Cc1ccc(CC(=O)OCCc2scnc2C)cc1OC [Example 101, 2-(4-Methylthiazol-5-yl)ethyl 2-(4-((2-amino-4-(butylamino)-6-methylpyrimidin-5-yl)methyl)-3-methoxyphenyl)acetate] | 39.8
9 | CCCCCNc1nc(N)nc(C)c1CCCN(Cc1ccc(CC(=O)OC)cc1)C(=O)CSC [Example 52, Methyl 2-(4-((N-(3-(2-amino-4-methyl-6-(pentylamino)pyrimidin-5-yl)propyl)-2-(methylthio)acetamido)methyl)phenyl)acetate] | 631
10 | CCCCCNc1nc(N)nc(C)c1Cc1cc(CC(=O)OC)ccc1O [Example 39, Methyl 2-(3-((2-amino-4-methyl-6-(pentylamino)pyrimidin-5-yl)methyl)-4-hydroxyphenyl)acetate] | 100
11 | CCCCCNc1nc(N)nc(C)c1CCCN(Cc1ccc(CC(=O)OC)cc1)C(=O)CN1CCC(c2ccccc2)CC1 [Example 28, Methyl 2-(4-((N-(3-(2-amino-4-methyl-6-(pentylamino)pyrimidin-5-yl)propyl)-2-(4-phenylpiperidin-1-yl)acetamido)methyl)phenyl)acetate] | 1260
12 | CCCCCNc1nc(N)nc(C)c1CCCN(Cc1cccc(CC(=O)OC)c1)C(=O)CN(C)CCO [Example 10] | 1580
13 | CCC[C@@H](CCO)Nc1nc(N)nc(C)c1Cc1ccc(CC(=O)OC)cc1 [Example 49, (S)-Methyl 2-(4-((2-amino-4-(1-hydroxyhexan-3-ylamino)-6-methylpyrimidin-5-yl)methyl)phenyl)acetate] | 200
14 | CCCCCNc1nc(N)nc(C)c1CCCNCc1ccc(CC(=O)OC)cc1 [Example 2, Methyl 2-(4-((3-(2-amino-4-methyl-6-(pentylamino)pyrimidin-5-yl)propylamino)methyl)phenyl)acetate] | 1000
15 | CCCCNc1nc(N)nc(C)c1Cc1ccc(CC(=O)OCCO)cc1OC [Example 89, 2-Hydroxyethyl 2-(4-((2-amino-4-(butylamino)-6-methylpyrimidin-5-yl)methyl)-3-methoxyphenyl)acetate] | 50.1
16 | CCC[C@@H](CO)Nc1nc(N)nc(C)c1Cc1ccc(CC(=O)OC)cc1F [Example 47, (S)-Methyl 2-(4-((2-amino-4-(1-hydroxypentan-2-ylamino)-6-methylpyrimidin-5-yl)methyl)-3-fluorophenyl)acetate] | 501
17 | CCC[C@@H](CO)Nc1nc(N)nc(C)c1Cc1ccc(CC(=O)OCCCCN(C)C)cc1 [Example 70, (S)-4-(Dimethylamino)butyl 2-(4-((2-amino-4-(1-hydroxypentan-2-ylamino)-6-methylpyrimidin-5-yl)methyl)phenyl)acetate] | 1260
18 | CCC[C@@H](CCO)Nc1nc(N)nc(C)c1Cc1ccc(CC(=O)OC)cc1O [Example 75, (S)-Methyl 2-(4-((2-amino-4-(1-hydroxyhexan-3-ylamino)-6-methylpyrimidin-5-yl)methyl)-3-hydroxyphenyl)acetate] | 6.31
19 | CCCCNc1nc(N)nc(C)c1Cc1cc(CC(=O)OC)ccc1OC [Example 98, Methyl 2-(3-((2-amino-4-(butylamino)-6-methylpyrimidin-5-yl)methyl)-4-methoxyphenyl)acetate] | 50.1
20 | CCCCNc1nc(N)nc(C)c1Cc1ccc(CC(=O)OCC2CCN(C)CC2)cc1 [Example 69, (1-Methylpiperidin-4-yl)methyl 2-(4-((2-amino-4-(butylamino)-6-methylpyrimidin-5-yl)methyl)phenyl)acetate] | 126
21 | CCCCCNc1nc(N)nc(C)c1Cc1ccc(OCC(=O)OC)cc1OC [Example 40, Methyl 2-(4-((2-amino-4-methyl-6-(pentylamino)pyrimidin-5-yl)methyl)-3-methoxyphenoxy)acetate] | 126
22 | CCCCCNc1nc(N)nc(C)c1Cc1ccc(CC(=O)OCCN2CCN(C)CC2)cc1 [Example 38, 2-(4-Methylpiperazin-1-yl)ethyl 2-(4-((2-amino-4-methyl-6-(pentylamino)pyrimidin-5-yl)methyl)phenyl)acetate] | 126
23 | CCC[C@@H](CO)Nc1nc(N)nc(C)c1Cc1ccc(CC(=O)OC)cc1O [Example 88, (S)-Methyl 2-(4-((2-amino-4-(1-hydroxypentan-2-ylamino)-6-methylpyrimidin-5-yl)methyl)-3-hydroxyphenyl)acetate] | 100
24 | CCC[C@@H](CCO)Nc1nc(N)nc(C)c1Cc1ccc(CC(=O)OCCCCN(C)C)cc1F [Example 86, (S)-4-(Dimethylamino)butyl 2-(4-((2-amino-4-(1-hydroxyhexan-3-ylamino)-6-methylpyrimidin-5-yl)methyl)-3-fluorophenyl)acetate] | 200
25 | CCCCNc1nc(N)nc(C)c1Cc1ccc(CC(=O)OCCCCN2CCCC2)cc1 [Example 82, 4-(Pyrrolidin-1-yl)butyl 2-(4-((2-amino-4-(butylamino)-6-methylpyrimidin-5-yl)methyl)phenyl)acetate] | 100
